In PubChem BioAssay (NCI):
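Results reflect a 48-hour exposure of cells in 96-well plates to compound at five concentrations. GI50 marks 50% less growth. TGI is the concentration that stops growth completely.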

Assays:
Test in all cases: NCI anticancer screen, dose series, 48 h
HL-60(TB) leukemia = tested on: HL-60(TB) leukemia
BT-549 breast = tested on: BT-549 breast
UO-31 renal = tested on: UO-31 renal
EKVX NSCLC = tested on: EKVX NSCLC
OVCAR-5 ovarian = tested on: OVCAR-5 ovarian
NCI/ADR-RES ovarian = tested on: NCI/ADR-RES ovarian
IGROV1 ovarian = tested on: IGROV1 ovarian
NCI-H522 lung = tested on: NCI-H522 lung
SK-MEL-5 melanoma = tested on: SK-MEL-5 melanoma
TK-10 renal = tested on: TK-10 renal
UACC-257 melanoma = tested on: UACC-257 melanoma
NCI-H226 lung = tested on: NCI-H226 lung
SF-539 CNS = tested on: SF-539 CNS
MCF7 breast = tested on: MCF7 breast
HOP-62 NSCLC = tested on: HOP-62 NSCLC
KM12 colon = tested on: KM12 colon
A549 NSCLC = tested on: A549 NSCLC
K-562 leukemia = tested on: K-562 leukemia
HS 578T breast = tested on: HS 578T breast
SN12C renal = tested on: SN12C renal
M14 melanoma = tested on: M14 melanoma
DU-145 prostate = tested on: DU-145 prostate
MDA-MB-231 breast = tested on: MDA-MB-231 breast
A498 renal = tested on: A498 renal
SR leukemia = tested on: SR leukemia
LOX IMVI melanoma = tested on: LOX IMVI melanoma
OVCAR-3 ovarian = tested on: OVCAR-3 ovarian
786-0 renal = tested on: 786-0 renal
CAKI-1 renal = tested on: CAKI-1 renal
NCI-H460 lung = tested on: NCI-H460 lung
SK-OV-3 ovarian = tested on: SK-OV-3 ovarian
SNB-19 CNS = tested on: SNB-19 CNS
SK-MEL-2 melanoma = tested on: SK-MEL-2 melanoma
SF-295 CNS = tested on: SF-295 CNS
ACHN renal = tested on: ACHN renal
SNB-75 CNS = tested on: SNB-75 CNS
OVCAR-8 ovarian = tested on: OVCAR-8 ovarian
NCI-H23 lung = tested on: NCI-H23 lung
U251 CNS = tested on: U251 CNS
OVCAR-4 ovarian = tested on: OVCAR-4 ovarian
T-47D breast = tested on: T-47D breast
COLO 205 colon = tested on: COLO 205 colon
MOLT-4 leukemia = tested on: MOLT-4 leukemia
SF-268 CNS = tested on: SF-268 CNS
MDA-MB-435 = tested on: MDA-MB-435
MALME-3M melanoma = tested on: MALME-3M melanoma
RXF 393 renal = tested on: RXF 393 renal
HCT-15 colon = tested on: HCT-15 colon
HCT-116 colon = tested on: HCT-116 colon
RPMI-8226 leukemia = tested on: RPMI-8226 leukemia
CCRF-CEM leukemia = tested on: CCRF-CEM leukemia
SW-620 colon = tested on: SW-620 colon
HT29 colon = tested on: HT29 colon
UACC-62 melanoma = tested on: UACC-62 melanoma
SK-MEL-28 melanoma = tested on: SK-MEL-28 melanoma
PC-3 prostate = tested on: PC-3 prostate

## CC1=CC(=O)C(O)C2(C)C1CC(O)C13COC4(C)C(OC(=O)C41)C(O)C23 (configuration not stated)
HL-60(TB) leukemia
  GI50: 4.24 µM
  TGI: > 100 µM
BT-549 breast
  GI50: 11 µM
  TGI: 43.4 µM
UO-31 renal
  GI50: 10.7 µM
  TGI: 42.7 µM
EKVX NSCLC
  GI50: 11.9 µM
  TGI: 41.6 µM
OVCAR-5 ovarian
  GI50: 20.5 µM
  TGI: 78.3 µM
NCI/ADR-RES ovarian
  GI50: 18.2 µM
  TGI: 61.3 µM
IGROV1 ovarian
  GI50: 12.3 µM
  TGI: 45.8 µM
NCI-H522 lung
  GI50: 6.65 µM
  TGI: 30.5 µM
SK-MEL-5 melanoma
  GI50: 5.06 µM
  TGI: 21.2 µM
TK-10 renal
  GI50: 12.1 µM
  TGI: 44.3 µM
UACC-257 melanoma
  GI50: 9.57 µM
  TGI: 38.8 µM
NCI-H226 lung
  GI50: 3.48 µM
  TGI: 21.2 µM
SF-539 CNS
  GI50: 8.13 µM
  TGI: 35.5 µM
MCF7 breast
  GI50: 3.95 µM
  TGI: 21.9 µM
HOP-62 NSCLC
  GI50: 6.12 µM
  TGI: 36.6 µM
KM12 colon
  GI50: 7.41 µM
  TGI: 33.6 µM
A549 NSCLC
  GI50: 5.49 µM
  TGI: 34 µM
K-562 leukemia
  GI50: 5.48 µM
  TGI: > 100 µM
HS 578T breast
  GI50: 12.5 µM
  TGI: 57.2 µM
SN12C renal
  GI50: 8.32 µM
  TGI: 32.7 µM
M14 melanoma
  GI50: 4.14 µM
  TGI: 15.4 µM
DU-145 prostate
  GI50: 4.36 µM
  TGI: 31.6 µM
MDA-MB-231 breast
  GI50: 15.4 µM
  TGI: 43.9 µM
A498 renal
  GI50: 18 µM
  TGI: 54.4 µM
SR leukemia
  GI50: 0.688 µM
  TGI: 6.46 µM
LOX IMVI melanoma
  GI50: 2.41 µM
  TGI: 8.4 µM
OVCAR-3 ovarian
  GI50: 19.5 µM
  TGI: 62.9 µM
786-0 renal
  GI50: 5.13 µM
  TGI: 27.4 µM
CAKI-1 renal
  GI50: 10.4 µM
  TGI: 54.4 µM
NCI-H460 lung
  GI50: 5.2 µM
  TGI: 62.7 µM
SK-OV-3 ovarian
  GI50: 16.5 µM
  TGI: 95.7 µM
SNB-19 CNS
  GI50: 7.94 µM
  TGI: > 100 µM
SK-MEL-2 melanoma
  GI50: 6.36 µM
  TGI: 29.5 µM
SF-295 CNS
  GI50: 8.02 µM
  TGI: 39.1 µM
ACHN renal
  GI50: 4.75 µM
  TGI: 20.3 µM
SNB-75 CNS
  GI50: 22 µM
  TGI: > 100 µM
OVCAR-8 ovarian
  GI50: 5.57 µM
  TGI: 25.2 µM
NCI-H23 lung
  GI50: 4.8 µM
  TGI: 18.6 µM
U251 CNS
  GI50: 6.1 µM
  TGI: 31.6 µM
OVCAR-4 ovarian
  GI50: 15 µM
  TGI: > 100 µM
T-47D breast
  GI50: 17.6 µM
  TGI: 66.5 µM
COLO 205 colon
  GI50: 12.1 µM
  TGI: 77.1 µM
MOLT-4 leukemia
  GI50: 0.0398 µM
  TGI: 7.34 µM
SF-268 CNS
  GI50: 12.6 µM
  TGI: 52.5 µM
MDA-MB-435
  GI50: 6.86 µM
  TGI: 43 µM
MALME-3M melanoma
  GI50: 10.1 µM
  TGI: 37.4 µM
RXF 393 renal
  GI50: 1.36 µM
  TGI: 6.98 µM
HCT-15 colon
  GI50: 4.47 µM
  TGI: 23.4 µM
HCT-116 colon
  GI50: 4.11 µM
  TGI: 19.3 µM
RPMI-8226 leukemia
  GI50: 17.3 µM
  TGI: > 100 µM
CCRF-CEM leukemia
  GI50: 5.79 µM
  TGI: > 100 µM
SW-620 colon
  GI50: 5.41 µM
  TGI: 89.9 µM
HT29 colon
  GI50: 9.02 µM
  TGI: > 100 µM
UACC-62 melanoma
  GI50: 8.02 µM
  TGI: 32.3 µM
SK-MEL-28 melanoma
  GI50: 7.32 µM
  TGI: > 100 µM
PC-3 prostate
  GI50: 26.4 µM
  TGI: > 100 µM
